According to article PMC11521937, “Expression and characterization of pantothenate energy‐coupling factor transporters as an anti‐infective drug target” (Protein Science : A Publication of the Protein Society, 2024):
Read-outs that look alike come from different tables or passages of the source.

Assays:
ECF‐PanT = ECF‐PanT (Streptococcus pneumoniae, UniProt A0A0H2ZPG6+A0ACD7PRR9+Q04HV7+Q97N51); assay: SPR binding to immobilized ECF‐PanT; settings: for Kd: SPR, S. pneumoniae ECF‐PanT, n = 2; for kon: pH 7.5, read-out: k a; for koff: pH 7.5, read-out: k d
Description: (§1) The ECF‐PanT, ECF‐module, and ECF‐FolT2, each bearing a histidine tag, were immobilized on a high‐affinity poly‐nitrilotriacetic acid (poly‐NTA) sensor chip, which was initially activated using NiCl2.
(§2) Additionally, the protein was maintained in the buffer containing 5% (v/v) DMSO. For a more in‐depth description of the procedures, please refer to Appendix S1.
(§3) Surface plasmon resonance (SPR)
(§4) The SPR binding studies were performed using a Reichert 4SPR surface plasmon resonance spectrometer (Reichert Technologies, Buffalo, NY, USA), and medium–density NTA derivatized polycarboxylate hydrogel NiHC200M sensor chips (XanTec Bioanalytics, Düsseldorf, Germany). The experimental procedure involved two rounds of nickel activation and one immobilization step at a […]
(§5) standard protocol as provided by Xantec bioanalytics with a slight modification based on the recombinant proteins. The flow-cell 4 was left blank to serve as a reference.
(§6) The immobilization buffer employed for the immobilization process consisted of 10 mM HEPES with a pH of 7.5, 50 mM NaCl, 50 µM EDTA, and 0.05% DDM without DMSO. Following the immobilization step, for the binding study of the compounds, the running buffer was exchanged for the mentioned buffer with 5% v/v DMSO. This was done to ensure consistency in the percentage of DMSO present in the solutions containing the respective testing inhibitors, as these inhibitors were soluble in the DMSO solvent. By maintaining the same DMSO concentration, we aimed to minimize any potential solvent-related effects on the assay results. All running buffers were filtered and degassed before use.
(§7) The system was initially primed with 5 mM NiCl2 with an association and dissociation time of 2 min for each to activate the NTA sensor chip. Then, the recombinant proteins with a concentration of 200 nM were injected at a flow rate of 10 µL/min for 8 min. Finally, the baseline check with the running […]
(§8) First, the calibration curve for correction of the DMSO effect was prepared; the concentrations were […]
(§9) concentration of DMSO in all the samples was set to 5% v/v DMSO. The samples (200 µL) were loaded on a 96-well plate and were injected at a flow rate of 50 μL/min. Single-cycle kinetics were applied for KD determination. The association time was set to 60 s, and the dissociation phase was recorded for 120 s. For surface regeneration, 0.35 M EDTA (pH 8.5) and 0.1 M NaOH were used. Data processing and […]
(§10) were calculated by sequential subtractions of the corresponding curves obtained from the reference flow cell and the running buffer (blank). SPR responses were expressed in the resonance unit (RU). The KD values were calculated by global fitting of the kinetic curves as well as fitting of the steady state binding responses to a 1:1 Langmuir interaction model.
(§11) The SPR experiments were conducted at least two times, representing independent replicates. The […]
(§12) interactions, are presented in Figure S12 for ECF-PanT, Figure S13 for ECF-FolT2, and Figure S14 for […]

ECF‐FolT2 = ECF‐FolT2 (Lactobacillus delbrueckii subsp. bulgaricus, UniProt Q1G929+Q1GBI8+Q1GBI9+Q1GBJ0); assay: SPR binding to immobilized ECF‐FolT2; settings: for Kd: n = 2
ECF‐FolT2, sequence (Q1GBJ0 whole entry): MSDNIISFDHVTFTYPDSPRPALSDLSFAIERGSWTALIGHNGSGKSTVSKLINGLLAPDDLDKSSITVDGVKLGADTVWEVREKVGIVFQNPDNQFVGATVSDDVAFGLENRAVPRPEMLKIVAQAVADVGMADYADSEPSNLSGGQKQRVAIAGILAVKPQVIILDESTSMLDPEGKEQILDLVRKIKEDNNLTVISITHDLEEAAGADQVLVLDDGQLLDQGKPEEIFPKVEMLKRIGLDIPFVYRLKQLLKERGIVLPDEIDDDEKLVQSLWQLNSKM
ECF‐FolT2, sequence (Q1GBI9 whole entry): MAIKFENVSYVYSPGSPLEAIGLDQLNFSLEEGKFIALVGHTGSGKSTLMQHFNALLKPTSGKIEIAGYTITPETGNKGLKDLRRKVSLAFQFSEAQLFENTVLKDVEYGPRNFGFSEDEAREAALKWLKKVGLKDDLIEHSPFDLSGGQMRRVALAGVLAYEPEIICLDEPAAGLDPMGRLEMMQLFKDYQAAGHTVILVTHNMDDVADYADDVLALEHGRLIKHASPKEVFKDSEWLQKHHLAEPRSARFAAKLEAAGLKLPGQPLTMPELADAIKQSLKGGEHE
ECF‐FolT2, sequence (Q1GBI8 entry or part of it): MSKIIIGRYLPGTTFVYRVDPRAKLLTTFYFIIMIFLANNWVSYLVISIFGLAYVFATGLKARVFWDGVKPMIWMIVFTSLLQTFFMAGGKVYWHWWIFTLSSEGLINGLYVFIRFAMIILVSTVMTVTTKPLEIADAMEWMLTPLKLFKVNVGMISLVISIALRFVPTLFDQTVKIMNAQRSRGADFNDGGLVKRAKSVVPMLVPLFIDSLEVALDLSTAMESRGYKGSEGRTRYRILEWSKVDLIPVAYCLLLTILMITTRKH
ECF‐FolT2, sequence (Q1G929 entry or part of it): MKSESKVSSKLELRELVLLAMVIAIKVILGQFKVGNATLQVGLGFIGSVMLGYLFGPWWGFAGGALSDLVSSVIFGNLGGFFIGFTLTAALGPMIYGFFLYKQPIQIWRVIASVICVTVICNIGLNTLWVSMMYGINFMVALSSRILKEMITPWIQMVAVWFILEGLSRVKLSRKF
Description: as §1, §2, §3, §4, §5, §6, §7, §8, §9, §10, §11, §12

S. pneumoniae ECF‐PanT = assay: Transport‐activity assay, radiolabeled pantothenate uptake into proteoliposomes; format: biochemical, Streptococcus pneumoniae; settings: 250 μM compound + 5 mM of Mg-ATP, relative to 5 mM Mg‐ATP alone
Description: Based on the reported transport activity assay on L. delbrueckii (Swier et al., [2016]), for the first time, we adapted this assay to a pathogenic bacterium. To do so, we purified the ECF‐PanT transporter, reconstituted it into proteoliposomes, and carried out transport assays with radiolabeled pantothenate. Upon the addition of MgATP, the radiolabeled pantothenate is translocated across the membrane via an ATP‐dependent mechanism. MgATP at 5 mM served as a positive control, supplying the proteins with the energy needed to complete the transport cycle, while MgADP at 5 mM was used as a negative control. The uptake of the radiolabeled substrate into proteoliposomes was measured using a scintillation counter.
The assay was performed based on the published protocol (Swier et al., [2016]). The only modification was reconstitution of S. pneumoniae ECF‐PanT in a 1:125 (w/w) ratio of protein to E. coli polar lipids into large unilamellar vesicles and using radiolabeled pantothenate for uptake.

[1] = In vitro MTT cytotoxicity assay, HepG2; format: cell-based, human; settings: human, read-out: Percent (%) cell viability at 100 μM, HepG2 cells
Description: In vitro cytotoxicity evaluation […]
with minor modifications, which will be detailed below.
To obtain information regarding the toxicity of our compounds, their impact on the viability of human cells was investigated. HepG2 and A549 cells (2 × 10^4 cells per well) were seeded in 96-well, flat-bottomed culture plates in 100 µL culture medium (DMEM containing 10% fetal calve serum, 1% penicillin-streptomycin). Twenty-four hours after seeding the cells, medium was removed and replaced by medium containing test compounds in a final DMSO concentration of 1%. Compounds were tested in duplicates at a single concentration in 1% DMSO/medium. Epirubicin and doxorubicin were used as positive controls in serial dilutions starting from 10 µM, and rifampicin was used as a negative control (at 100 µM). The living cell mass was determined 48 h after treatment with compounds by adding 0.1 volumes of 3-(4,5-dimethylthiazol-2-yl)-2,5-diphenyltetrazolium bromide (MTT) solution (5 mg/mL sterile PBS) (Sigma, St. Louis, MO) to the wells. After incubating the cells for 30 min at 37 °C (atmosphere containing 5% CO2), medium was removed and MTT crystals were dissolved in 75 µL of a solution containing 10% SDS and 0.5% acetic acid in DMSO. The optical density (OD) of the samples was determined photometrically at 570 nm in a PHERAstar Omega plate reader (BMG labtech, Ortenberg, Germany). To obtain percent viability for each sample, their ODs were related to those of DMSO controls. At least two independent measurements were performed for each compound. The calculation of IC50 was performed using the nonlinear regression function of GraphPad Prism 10 (GraphPad Software, San Diego, CA, USA). […]

[2] = global fit of kinetic curves, read-out: Kinetic, K D
[3] = steady state fit, read-out: Equilibrium, K D
[4] = SPR, L. delbrueckii ECF‐FolT2, global fit of kinetic curves, read-out: Kinetic, K D
[5] = SPR, L. delbrueckii ECF‐FolT2, steady state fit, read-out: Equilibrium, K D
[6] = pH 7.5, SPR, L. delbrueckii ECF‐FolT2, n = 2, read-out: k a
[7] = pH 7.5, SPR, L. delbrueckii ECF‐FolT2, n = 2, read-out: k d
[8] = Equilibrium, K D, steady state fit
[9] = Kinetic, K D, global fit of kinetic curves
[10] = Equilibrium, K D, SPR, L. delbrueckii ECF‐FolT2, steady state fit
[11] = Kinetic, K D, SPR, L. delbrueckii ECF‐FolT2, global fit of kinetic curves

Compound	Kd (ECF‐PanT; [2]) [µM]	Kd (ECF‐PanT; [3]) [µM]	kon (ECF‐PanT) [M⁻¹ s⁻¹]	koff (ECF‐PanT) [s⁻¹]	Kd (ECF‐FolT2; [4]) [µM]	Kd (ECF‐FolT2; [5]) [µM]	kon (ECF‐FolT2; [6]) [M⁻¹ s⁻¹]	koff (ECF‐FolT2; [7]) [s⁻¹]	Percentage inhibition of pantothenate uptake (S. pneumoniae ECF‐PanT) [%]	viability at 48 h, 100 µM ([1]; HepG2 cells) [%]	Kd (ECF‐PanT; [8]) [µM]	Kd (ECF‐PanT; [9]) [µM]	Kd (ECF‐FolT2; [10]) [µM]	Kd (ECF‐FolT2; [11]) [µM]	kon (ECF‐FolT2; pH 7.5, read-out: k a) [M⁻¹ s⁻¹]	koff (ECF‐FolT2; pH 7.5, read-out: k d) [s⁻¹]	viability at 48 h, 100 µM [1] [%]
O=C(O)c1cccc(NCc2ccc(-c3cccc(Cl)c3)o2)c1 [Compound 5]	451 ± 8	420 ± 10	348 ± 7	0.157 ± 0.002	328 ± 6	300 ± 30	570 ± 10	0.187 ± 0.003	90.6	106 ± 8							
CC(C)(C)OC(=O)Nc1ccc(OCc2cccc3ccccc23)cc1C(=O)O [Compound 3]			650 ± 9	0.0643 ± 0.0006					80.7		96 ± 8	99 ± 1	128 ± 9	132 ± 3	570 ± 10	0.0755 ± 0.0008	49 ± 3
O=C(O)c1cccc(NCc2ccc(-c3ccccc3Cl)o2)c1 [Compound 6]	391 ± 6	374 ± 6	376 ± 6	0.147 ± 0.002	231 ± 5	230 ± 10	100000	22 ± 3	61.9	105 ± 3							
O=C(O)c1cc(OCc2ccc(Br)c3ccccc23)ccc1O [Compound 2]									117.2		170 ± 5	172 ± 2	190 ± 20	185 ± 3			23 ± 7
O=C(O)c1cc(OCc2cccc3ccccc23)ccc1O [Compound 1]									81.8		277 ± 5	276 ± 4	300 ± 20	294 ± 6			20 ± 2
O=C(O)c1cccc(NCc2ccc(-c3ccc(Cl)cc3)o2)c1 [Compound 4]	317 ± 3	304 ± 6	399 ± 4	0.127 ± 0.001	353 ± 5	340 ± 10	325 ± 5	0.115 ± 0.001	95.2	88 ± 9							
